Structures can show the parent of a compound that is named as a salt. Where two headings read alike, the source gives them in different places.
Key:
mold = assay: Mold growth in starter mash by CO2 formation in headspace (Examples 7, 8); conditions: basal diet 85.2% dry matter; 2.0, 1.5 and 1.0 lb/ton; FIG. 12
Protocol: Fungal growth in basal starter mash was studied in compositions supplemented with DLM or Alimet® as the methionine source. Total microbial growth was monitored by measuring carbon dioxide (CO2) formation in sealed vessels at 28° C. over time.
The technique of using a closed system and measuring CO2 formation has been verified as an approximation of the conditions found in grain storage bins. See, e.g., Muir et al., Trans. ASAE, 28(5) 1673-1675 (1985), the contents of which are hereby incorporated by reference in their entirety.
A mash starter mash feed (formulation shown in Table 9, below) was subdivided into three groups: basal (control), 0.2% DLM, or 0.2% Alimet®. The feed studied had no commercial mold inhibitors added, and is representative of a typical broiler feed.
Initial moisture of the feed was 10.8%. After the addition of Alimet® or DLM, the moisture of the samples was adjusted by the addition of 2%, 4%, or 6% sterile distilled water to promote mold growth, achieving three moisture groups: […].
For each study, four replicate samples of each moisture group were mixed, and 600 g of the mixture was placed into 1 L containers, sealed, and placed at 28° C. in a temperature-controlled room. Draeger Detector tubes (CO2-measuring, obtained from Fisher Scientific) were used to measure the developed CO2 at different days following vessel sealing (two measurements were made per week). Draeger Short-Term Detector Tubes are glass tubes filled with inert carrier and an indicating reagent. The reagent produces a colorimetric indication in the presence of a particular gas (CO2). The concentration of gas is read directly from the discoloration on the tube's printed scale.
The specific mold species present were not identified. Statistical analysis was accomplished by using Duncan's multiple range test (SAS). Different letters on individual time points in FIGS. 9-11 indicate statistical differences of P<0.05.
The experiment described above in Example 7 was repeated with blends of 2.0 lb/ton, 1.5 lb/ton, 1.0 lb/ton or 0.5 lb/ton of 65% propionic acid and either […]. The blends were prepared according to the matrix outlined in Table 8, below. The 65% propionic acid was buffered with ammonium hydroxide to a pH of 5.5.

Salmonella = conditions: for Average cfu/g / Average log / Average Δ log: protocol of Example 9; for Average Δ log: versus control; for Δ log: Table 11, 90 min 37 C
Protocol: Tests were carried out using 1 g feed (crumble ground) with 6% meat and bone meal (“MBM”). […] The acid solutions were added to the feed as indicated below; water (1 mL) and 150 mM HCl (1.8 mL) was added to bring the pH to 4.0. Naldixic Acid resistant Salmonella (provided by Dr. Stan Bailey, USDA/ARS, Athens, Ga.) (initial colony count=40,000 cfu/g) was added, and the feed solutions were incubated at 37 C for 90 min. Each sample was diluted with 6 mL H2O, plated, and counted the following day.

S. enteritidis = S. enteritidis colony counts in broth (Examples 1-3, 17); conditions: pH 4.5; for log cfu/mL: Table 24, blends total 5 g/L, control […]; for log cfu/mL (S. enteritidis colony counts in broth): total 5 g/L, protocol of Example 1; for inhibitory effect on S. enteritidis: 5 g/l, Example 17
E. coli (ATCC 25922) = assay: E. coli populations in trypticase soy broth with acid:Alimet blends (Example 4); type: cell-based; conditions: Table 7, total 6 g/L, initial 4.97 log cfu/mL
Description: Blends of organic acid:Alimet® of 2:1 and 5:1 were studied, at a total concentration (organic acid+Alimet®) of 6 g/L.
The pH of the solutions were originally adjusted to pH 5 by addition of HCl and/or NaOH as needed. Activated E. coli culture solutions were transferred to fresh soy broth twice at 24-hour intervals prior to before addition of the organic acid:Alimet® blend. E. coli culture solutions were centrifuged; pellet produced was re-suspended with Butterfield buffer, and the resulting solutions were diluted to approximately 10^7 CFU E. coil/mL.
Bottles were inoculated with 100 μL of prepared bacterial suspension and an organic acid:Alimet® blend. Samples were taken after five and 24 hours of incubation, serially diluted and spread-plated on trypticase soy agar, and incubated at 35° C. for 24 hours.

[1] = system: Common carp, Cyprinus carpio L.; assay: Feeding preference of common carp, number of bites (Example 25); type: in vivo; conditions: for Bites/10 minutes: test diet vs control diet in same tank
Protocol: Common carp, Cyprinus carpio L. from a commercial fish farm were acquired and sorted to common body weight and length, about 20 g and 8-11 cm, respectively. […] Diets were mixed with adequate water to create a stable feed ball. […] Twenty tanks (45 cm×40 cm×45 cm) were dedicated the feeding behavior assessment. Two fish were housed in each tank with two feeding bars per tank. […] The water in each tank was aerated 24 h a day and the fish were fed the control diet under the above conditions for one week prior to the study. To evaluate preference, the control and test diets were each placed on one of the two bars in each tank.

E. coli = E. coli colony counts over time in soy broth at pH 4 or 7.3 (Example 5); type: cell-based; conditions: FIG. 5
Protocol: The cultures were incubated, and colony counts performed at increasing times.

[2] = Table 26, acid or formaldehyde plus Alimet
[3] = Table 34, formulations of Table 33 (g/kg)
[4] = Table 37, formulations of Table 36 (g/kg)
[5] = Table 38, formulations of Table 36 (g/kg)

CCC(=O)O [65% propionic acid, propionic acid]
delay of the onset of mold growth (mold): about 11 days

CCCC(=O)O [Blend A16]
log cfu/g (Salmonella; Table 13, blends without Alimet, control 4.7): 2.7 log cfu/g
Δ log reduction (Salmonella; Table 13, blends without Alimet, vs control): 2.0

O=CO [Blend A81]
log cfu/mL (S. enteritidis): 3.93 log cfu/mL

CCCC(=O)O [Blend A87]
log cfu/mL (S. enteritidis): 4.44 log cfu/mL

O=C(O)CC(O)(CC(=O)O)C(=O)O [Blend A93]
log cfu/mL (S. enteritidis): 4.74 log cfu/mL

O=C(O)/C=C/C(=O)O [Blend A99]
log cfu/mL (S. enteritidis colony counts in broth) (S. enteritidis; Table 25, acid plus Alimet): 4.68 log cfu/mL

CC(O)C(=O)O (stereo not shown) [Blend A105]
log cfu/mL (S. enteritidis colony counts in broth) (S. enteritidis; Table 25, acid plus Alimet): 4.44 log cfu/mL

O=C(O)CC(O)C(=O)O (stereo not shown) [Blend A111]
log cfu/mL (S. enteritidis colony counts in broth) (S. enteritidis; Table 25, acid plus Alimet): 5.01 log cfu/mL

CCC(=O)O [Blend A117]
log cfu/mL (S. enteritidis colony counts in broth) (S. enteritidis; [2]): 4.34 log cfu/mL

O=P(O)(O)O [Blend A123]
log cfu/mL (S. enteritidis colony counts in broth) (S. enteritidis; [2]): 4.68 log cfu/mL

C=O [Blend A129]
log cfu/mL (S. enteritidis colony counts in broth) (S. enteritidis; [2]): −0.30 log cfu/mL

CCCC(=O)O [Blend A147]
Trial 1 cfu/g (Salmonella; Table 34): 22,200 cfu/g
Trial 2 cfu/g (Salmonella; Table 34): 15,400 cfu/g
Average cfu/g (Salmonella; [3]): 18,800 cfu/g
Average log (Salmonella; [3]): 4.3
Average Δ log (Salmonella; Table 34): 0.4

CCCC(=O)O [Blend A177]
Trial 1 cfu/g (Salmonella; Table 37): 5,400 cfu/g
Trial 2 cfu/g (Salmonella; Table 37): 7,000 cfu/g
Trial 3 cfu/g (Salmonella; Table 37): 6,600 cfu/g
Average cfu/g (Salmonella; [4]): 6,333 cfu/g
Average log (Salmonella; [4]): 3.8
Average Δ log (Salmonella; Table 37): 0.5

CCC(=O)O [Blend A204]
Trial 1 cfu/g (Salmonella; Table 38): 5,400 cfu/g
Trial 2 cfu/g (Salmonella; Table 38): 1,600 cfu/g
Average cfu/g (Salmonella; [5]): 3,500 cfu/g
Average log (Salmonella; [5]): 3.5
Average Δ log (Salmonella; Table 38): 0.6

CSCCC(O)C(=O)O (stereo not shown) [Blend A207]
Trial 1 cfu/g (Salmonella; Table 38): 0 cfu/g
Trial 2 cfu/g (Salmonella; Table 38): 0 cfu/g
Trial 3 cfu/g (Salmonella; Table 38): 0 cfu/g
Trial 4 cfu/g (Salmonella; Table 38, Trial 4): 0 cfu/g
Average cfu/g (Salmonella; [5]): 0 cfu/g
Average Δ log (Salmonella; Table 38): 4.2

Cl [HCl, hydrochloric acid]
log cfu/mL t = 4 h (E. coli (ATCC 25922)): 7.85 log cfu/mL
log cfu/mL t = 24 h (E. coli (ATCC 25922)): 8.34 log cfu/mL

CSCCC(O)C(=O)O (stereo not shown) [MHA, methionine hydroxy analog]
Bites/10 minutes ([1]; MHA 0.077 % Inclusion): 74.39 ± 14.14 Bites/10 minutes
Bites/10 minutes ([1]; MHA 0.154 % Inclusion): 67.73 ± 23.18 Bites/10 minutes
Bites/10 minutes ([1]; MHA 0.308 % Inclusion): 63.52 ± 20.23 Bites/10 minutes
number of bites vs control diet ([1]; common carp, 10 minutes, 0.07-0.28% Alimet or 0.077-0.308% MHA in diet): significantly higher

O=P(O)(O)O [Phosphoric, phosphoric acid]
inhibitory effect on S. enteritidis (S. enteritidis): do not show a significant inhibitory effect

CCCC(=O)O [butyric, butyric acid]
Δ log (Salmonella; 10 g/L, vs control): 0.7
Δ log (Salmonella; 30 g/L, vs control): 4.0
Δ log (Salmonella; 50 g/L, vs control): 4.0

O=C(O)/C=C/C(=O)O [fumaric, fumaric acid]
inhibitory effect on S. enteritidis (S. enteritidis): do not show a significant inhibitory effect

CC(O)C(=O)O (stereo not shown) [lactic, lactic acid]
decrease of colony counts of E. coli vs hydrochloric acid (E. coli): better than hydrochloric acid
inhibitory effect on S. enteritidis (S. enteritidis): do not show a significant inhibitory effect

O=C(O)CC(O)C(=O)O (stereo not shown) [malic, malic acid]
inhibitory effect on S. enteritidis (S. enteritidis): do not show a significant inhibitory effect

CCC(=O)O [propionic, propionic acid]
inhibitory effect on S. enteritidis (S. enteritidis): do not show a significant inhibitory effect

Source: patent US7465471B2, “Palatability of aquaculture feed” (Novus International, Inc., priority 2003, dated 2008)
